The source of these data is patent publication US9408820B2, “Broncholytic drug on the basis of prostaglandin” (OBSCHESTVO S OGRANICHENNOY OTVETSTVENNOST'YU “PROSTANIT …, priority 2012, dated 2016).

Data set [1] relates to patients with bronchial asthma in unstable remission state. Kind of data set: broncholytic activity by inhalation in patients with bronchial asthma. Type of data set: in vivo, human. From the text:
(§1) The present invention solves the task of creating of bronchial dilating drug on the basis of 1′,3′-dinitroglycerol ester of 11(S),15(S)-dihydroxy-9-keto-5Z,13E-prostadienoic acid (nitroproston). This drug is any form of nitroproston suitable for introduction into the respiratory tract by inhalation, for example in the form of isotonic solution. […] Therapeutic index measured in rodents is greater than 15000.
On the x-axis is the time after the introduction of the nitroproston, min; on the y-axis is the peak exhale velocity (l/min). The names of patients are abbreviated.
(§2) The tests were carried out on healthy volunteers (average age 42.6±3.9 years) and patients with bronchial asthma in unstable remission state (average age 48.3±5.1 years). Nitroproston was introduced via inhalation in the form of a solution in the physiological solution in doses of 5 and 7.5 μg per inhalation. To a person skilled in the art will not meet a difficulty to prepare the solution for inhalation, knowing the dose of the active substance and the volume of the solution, which will be determined by technical features used in the specific context of the inhaler. […] External respiratory function was determined with the help of automatic spiroanalyzer (VI 8911, Estonia). […] So, change the maximum 25% volume exhalation velocity ranged from 10.4 to 32.2% as compared to the original values. Changes in peak volumetric velocity of exhalation in patients who have received 7.5 micrograms nitroproston per inhalation, are presented at the FIG. 1.

In a further data set the test system is healthy volunteers. Kind of data set: inhalation in healthy volunteers, external respiratory function. Format: in vivo, human. On the procedure: as §1, §2
The next data set concerns guinea pig trachea. To be noted: isolated guinea pig trachea; read-out: EC50, relaxation of the guinea pig trachea; cited from earlier work.
The next data set deals with individuals. To be noted: in vivo; cited from earlier work.
In data set [2] the test system is white outbred male mice. Kind of data set: acute toxicity and therapeutic index in mice. Type of data set: in vivo. To be noted: alcohol solution. The protocol:
Experiments conducted on white outbred male mice (22±2 g weight). Nitroproston in the form of alcohol solution was injected intraperitoneal to the 10 mice in a maximum of 50 μl per dose of 215 mg/kg. The control group (10 animals) was injected with the same volume of pure ethyl alcohol. Animal health monitoring period was 14 days. Therapeutic index defined as the ratio of LD50 values (toxic dose) to the ED20 for change in blood pressure (pharmacological dose).

Data set [3] has as its system white outbred male mice. As to the kind of experiment: toxicity in repeated introduction in mice. Type of data set: in vivo. To be noted: 50 and 500 μg/kg daily for 14 days. On the procedure:
Experiments conducted on white outbred male mice (22±2 g weight). Animals were divided into three groups of 10 animals each. Nitroproston (1% of alcoholic solution) was diluted with water and was injected in the volume 20 μl in two doses: 50 and 500 μg/kg. The control group was injected with equal volume of distilled water. The injections worked every day for 14 days. The animals were observed daily, measuring their weight, the intake of food and water. There have been observed no differences in the state and behavior of the animals between the control and experimental groups.

For the compound `CC(Cc1ccc(O)cc1)NCC(O)c1cc(O)cc(O)c1` (stereo not drawn) [Berotec, reference compound], the bronchospasm test result in data set [1] (patients with bronchial asthma) was “positive result”. For the same compound, the “changes in the functions of the external respiration” value in the data set with healthy volunteers was “did not cause significant changes”.

Broadly, the EC50 is the concentration needed to bring the measured effect to its halfway point. As to `CCCCC[C@H](O)/C=C/[C@H]1[C@H](O)CC(=O)[C@@H]1C/C=C\CCCC(=O)O` [natural prostaglandin E2, prostaglandin E2, reference compound], in the data set on guinea pig trachea, the EC50 was 0.14 ± 0.08 µM. In addition, in the data set on individuals, the “side effect in individuals” value is on record as “strong cough reflex”.

Regarding `CCCCC[C@H](O)/C=C/[C@H]1[C@@H](O)CC(=O)[C@@H]1C/C=C\CCCC(=O)OC(CO[N+](=O)[O-])CO[N+](=O)[O-]` [nitroproston, 1′,3′-dinitroglycerol ester of 11(S),15(S)-dihydroxy-9-keto-5Z,13E-prostadienoic acid], in the data set with white outbred male mice [2] (215 mg/kg intraperitoneal, 14 days observation), the animal deaths entry was “animal deaths have not observed”. The acute toxicity assessment entry with white outbred male mice [2] (intraperitoneal, mice) is listed as “low-toxic compound”. For the same compound, the “toxic effects on repeated introduction” value in the data set on white outbred male mice [3] is listed as “no toxic effects”. Also, in data set [1] (5 μg per inhalation), the “parameters of external breath” value was “improved slightly” and the side effects result is given as “have not noticed any side effects”. Further, in data set [1] (7.5 μg per inhalation), the external respiration indices entry was “have been improved”. In addition, the “toxicity at therapeutic doses” value in data set [1] (5-20 μg per inhalation) is given as “non-toxic”. Moreover, the “peak volumetric velocity of exhalation” value in data set [1] (7.5 micrograms per inhalation, within 360 minutes (FIG. 1)) is given as “strongest increase”. Further, the “only side effect of the inhalation solution” value in data set [1] (inhalation solution) is “transient dry mouth”. In addition, the “bronchial dilation and side effects” value in data set [1] (isotonic solution, 7.5 micrograms per inhalation) is “prolonged dilation of bronchus without side effects”. Further, the cough bouts entry in data set [1] (patients with asthma, inhalation) is “no cough bouts”. In the data set with healthy volunteers, the “changes in the functions of the external respiration” value was “did not cause significant changes” and the cough bouts result is recorded as “no cough bouts”. Further, in the data set with guinea pig trachea, the EC50 is 0.007 µM.
